Earlier results in US12532880B2, “Cryopreservation of cell monolayers” (priority 2018, dated 2026).

What was measured:
[1] = test system: intact human articular cartilage; conditions: chondroitin sulfate added to the vitrification solution
[2] = test system: porcine corneal endothelium; conditions: endothelium cryopreserved in the presence of 2% CS

chondroitin sulfate [CS]
Cell recovery [1]: 75.4% | Loss of viability in post-thaw culture [2]: 33%
